Assay [1] relates to RAN translation of (G4C2)66-No ATG-GFP in HEK293T cells. In words: Cell-based assay of RAN translation inhibition (GFP/mCherry reporter). Conditions: Homo sapiens, HEK-293T, 24 h, read-out: RANT IC25.
For assay [2], the target named is biotinylated r(G4C2)8 RNA and hnRNP H1-His6. Description: TR-FRET hnRNP H binding assay. The protocol: TR-FRET hnRNP H Binding Assay. The TR-FRET assays were performed as previously described (Disney et al., 2012) except the final concentrations of biotinylated r(G4C2)8 (SEQ ID NO: 2) RNA and hnRNP H1-His6 were 80 nM and 75 nM, respectively. The RNA was folded by heating to 95° C. for 5 min in 1× Folding Buffer followed by slowly cooling to room temperature. The buffer was adjusted to 1×TR-FRET Assay Buffer followed by addition of compound. The mixture was incubated for 15 min at room temperature and then hnRNP H1-His6 was added. After an additional 15 min incubation, streptavidin-XL665 (HTRF, Cisbio Bioassays) and anti-His6-Tb (HTRF, Cisbio Bioassays) were added to a final concentration of 40 nM and 0.44 ng/μL, respectively. After incubating for 1 h, TR-FRET was measured as previously described. The IC50s were either calculated by fitting the equation (1) in Graphpad Prism.

[3] abbreviates: Table D, HEK293T, 24 h treatment.
Where [4] appears, read: Table F, HEK293T, 24 h treatment.

SMILES strings stand for the structures. Read-outs that look alike come from different tables or passages of the source.

Consider `Cc1c2ccncc2cc2c3cc(OCCCN4CCCC4)ccc3n(C)c12` [Compound 9, 5,6-dimethyl-9-(3-(pyrrolidin-1-yl)propoxy)-6H-pyrido[4,3-b]carbazole], for which the concentration for an effect of 25% (IC25) (commonly the concentration at which the effect reaches the 25% level) in assay [1] (setting [3]) came to 0.27 µM. In assay [2] (Table D), the Ki (in general, a dissociation constant, usually derived from enzyme kinetics or from competition with a known ligand) amounted to 10 µM.

In the case of `CCN(CC)CCCOc1ccc2c(c1)c1cc3cnccc3c(C)c1n2C` [Compound 10, 3-((5,6-dimethyl-6H-pyrido[4,3-b]carbazol-9-yl)oxy)-N,N-diethylpropan-1-amine], the IC25 in assay [1] (setting [3]) was 3.2 µM. This compound yielded a Ki in assay [2] (Table D) of 7.3 µM.

For the compound `Cc1c2ccncc2cc2c3cc(OCCN4CCOCC4)ccc3n(C)c12` [Compound 11, 4-(2-((5,6-dimethyl-6H-pyrido[4,3-b]carbazol-9-yl)oxy)ethyl)morpholine], the IC25 in assay [1] (setting [3]) was 0.4 µM. This compound also yielded a Ki in assay [2] (Table D) of 16 µM.

As to `Cc1c2ccncc2cc2c3cc(OCC(N)=O)ccc3n(C)c12` [Compound 12, 2-((5,6-dimethyl-6H-pyrido[4,3-b]carbazol-9-yl)oxy)acetamide], in assay [1] (setting [3]), the IC25 stood at 0.3 µM. In addition, in assay [2] (Table D), the Ki is 18 µM.

As to `Cc1c2ccncc2cc2c3cc(OCCCN4CCN(C)CC4)ccc3n(C)c12` [Compound 23, 5,6-dimethyl-9-(3-(4-methylpiperazin-1-yl)propoxy)-6H-pyrido[4,3-b]carbazole], the 25% effect concentration (IC25) in assay [1] (setting [3]) was more than 5 µM. In addition, the Ki in assay [2] (Table D) came to 9.4 µM.

As to `Cc1c2ccncc2cc2c3cc(C(=O)NCCN4CCCCC4)ccc3n(C)c12` [Compound 213, 5,6-dimethyl-N-(2-(piperidin-1-yl)ethyl)-6H-pyrido[4,3-b]carbazole-9-carboxamide], in assay [1] (setting [4]), the IC25 came to 1.7 µM. Moreover, the Ki in assay [2] (Table F) stood at 1.2 µM.

Consider `Cc1c2ccncc2cc2c3cc(C(=O)NCCO)ccc3n(C)c12` [Compound 214, N-(2-hydroxyethyl)-5,6-dimethyl-6H-pyrido[4,3-b]carbazole-9-carboxamide], for which the IC25 in assay [1] (setting [4]) was determined as 1 µM. Also, affinity in assay [2] (Table F) was put at a Ki of 3.6 µM.

For `COCCNC(=O)c1ccc2c(c1)c1cc3cnccc3c(C)c1n2C` [Compound 215, N-(2-methoxyethyl)-5,6-dimethyl-6H-pyrido[4,3-b]carbazole-9-carboxamide], the IC25 in assay [1] (setting [4]) was more than 5 µM. For the same compound, the Ki in assay [2] (Table F) was found to be 12 µM.

In the case of `Cc1c2ccnc(C3CCCO3)c2cc2c3cc(C(=O)NCCN(C)C)ccc3n(C)c12` (stereo not shown) [Compound 216, N-(2-(dimethylamino)ethyl)-5,6-dimethyl-1-(tetrahydrofuran-2-yl)-6H-pyrido[4,3-b]carbazole-9-carboxamide], the IC25 in assay [1] (setting [4]) was found to be 1.7 µM. Moreover, the Ki in assay [2] (Table F) came to 6.9 µM.

On to `Cc1c2ccncc2cc2c3cc(OCCN4CCS(=O)(=O)CC4)ccc3n(C)c12` [Compound 217, 4-(2-((5,6-dimethyl-6H-pyrido[4,3-b]carbazol-9-yl)oxy)ethyl)thiomorpholine 1,1-dioxide], for which the IC25 in assay [1] (setting [4]) was more than 5 µM. The Ki in assay [2] (Table F) was 8.5 µM.

Take `Cc1c2ccncc2cc2c3cc(OC[C@H](C)N)ccc3n(C)c12` [Compound 218, (S)-1-((5,6-dimethyl-6H-pyrido[4,3-b]carbazol-9-yl)oxy)propan-2-amine]: the IC25 in assay [1] (setting [4]) is 0.84 µM. This compound showed a Ki in assay [2] (Table F) of 0.8 µM.

Regarding `Cc1c2ccncc2cc2c3cc(OCCN4CCCCCC4)ccc3n(C)c12` [Compound 219, 9-(2-(azepan-1-yl)ethoxy)-5,6-dimethyl-6H-pyrido[4,3-b]carbazole], the IC25 in assay [1] was more than 5 µM. Besides, the Ki in assay [2] (Table F) worked out at 1.2 µM.

For `Cc1c2ccncc2cc2c3cccc(OCCN(C)C)c3n(C)c12` [Compound 220, 2-((5,6-dimethyl-6H-pyrido[4,3-b]carbazol-7-yl)oxy)-N,N-dimethylethanamine], in assay [1], the 25% effect concentration (IC25) was more than 5 µM. Moreover, the Ki in assay [2] (Table F) was 2.3 µM.

Turning to `Cc1c2ccnc(C(=O)N[C@H](C)CN(C)C)c2cc2c3ccc(OCCCN4CCN(C)CC4)cc3n(C)c12` [Compound 222, (R)—N-(1-(dimethylamino)propan-2-yl)-5,6-dimethyl-8-(3-(4-methylpiperazin-1-yl)-propoxy)-6H-pyrido[4,3-b]carbazole-1-carboxamide], in assay [1] (setting [4]), the IC25 was more than 5 µM. Moreover, in assay [2] (Table F), the Ki was 6.1 µM.

(Values after US20240067639A1, “SMALL MOLECULES THAT TARGET THE RNA THAT CAUSES ALS” (EXPANSION THERAPEUTICS, INC., priority 2020, published 2024).)
